These results are taken from patent US20240199558A1, “2,4,6-TRISUBSTITUTED 1,3,5-TRIAZINES AS MODULATORS OF CX3CR1” (ASTRAZENECA AB, priority 2022, published 2024).

pIC50: −log10 of the molar value.

In this assay the target is CX3CR1 (Homo sapiens (Human), UniProt P49238). Description: hCX3CR1 [3H]-AZD8797 competitive binding assay (filter). Particulars: CHO-hCX3CR1 membranes, 2 nM [3H]-AZD8797. An outline of the steps: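 CHO-hCX3CR1 membranes (9 μg/well) were incubated 2 h at room temperature with 2 nM [3H]-AZD8797 and varying competitor concentrations. Buffer: 25 mM HEPES pH 7.4, 10 mM MgCl2, 1 mM CaCl2, 0.5% BSA, 1% DMSO. Bound ligand was collected by vacuum filtration, washed in ice-cold buffer with 500 mM NaCl, and counted by scintillation.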
Sequence of CX3CR1 (P49238 whole entry): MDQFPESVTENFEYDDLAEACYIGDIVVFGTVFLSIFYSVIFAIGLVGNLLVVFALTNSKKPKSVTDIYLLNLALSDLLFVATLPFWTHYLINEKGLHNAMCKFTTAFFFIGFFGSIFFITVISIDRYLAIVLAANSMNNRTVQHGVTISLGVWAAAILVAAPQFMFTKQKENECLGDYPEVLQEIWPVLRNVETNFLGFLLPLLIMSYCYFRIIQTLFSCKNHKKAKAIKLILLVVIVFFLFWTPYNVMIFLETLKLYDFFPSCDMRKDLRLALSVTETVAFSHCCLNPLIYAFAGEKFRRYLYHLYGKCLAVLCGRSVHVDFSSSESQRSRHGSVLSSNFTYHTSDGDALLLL
What is called pIC50 is the IC50 on a negative log10 scale, so that one unit is a factor of ten. In turn, `CC(C)C[C@H](CO)Nc1nc(CC(C)c2ccc(F)c(CO)c2)nc(NS(C)(=O)=O)n1` (stereo partly drawn) [Example 122, N-(4-(2-(4-Fluoro-3-(hydroxymethyl)phenyl)propyl)-6-(((R)-1-hydroxy-4-methylpentan-2-yl)amino)-1,3,5-triazin-2-yl)methanesulfonamide] gave a negative-log IC50 (pIC50) of 6.92.

In the case of `CC(C)C[C@H](CO)Nc1nc(CC(C)c2ccc(CCN3CCOCC3)cc2)nc(NS(C)(=O)=O)n1` (stereo partly drawn) [Example 138, N-(4-(((R)-1-Hydroxy-4-methylpentan-2-yl)amino)-6-(2-(4-(2-morpholinoethyl)phenyl)propyl)-1,3,5-triazin-2-yl)methanesulfonamide], the pIC50 is 6.92.

In the case of `CC(C)C[C@H](CO)Nc1nc(CC(C)c2ccc(OC(C)C)nc2)nc(NS(C)(=O)=O)n1` (stereo partly drawn) [Example 159, N-(4-(((R)-1-Hydroxy-4-methylpentan-2-yl)amino)-6-(2-(6-isopropoxypyridin-3-yl)propyl)-1,3,5-triazin-2-yl)methanesulfonamide], the pIC50 was 6.58. As for `CCC(Cc1nc(N[C@@H](CO)CC(C)C)nc(NS(C)(=O)=O)n1)c1cnc(OC)cc1F` (stereo partly drawn) [Example 49, N-(4-(2-(4-Fluoro-6-methoxypyridin-3-yl)butyl)-6-(((R)-1-hydroxy-4-methylpentan-2-yl)amino)-1,3,5-triazin-2-yl)methanesulfonamide], the pIC50 is 6.32. With `CC(C)C[C@H](CO)Nc1nc(CC(C)c2ccc(F)c(C#N)c2)nc(NS(C)(=O)=O)n1` (stereo partly drawn) [Example 161], the pIC50 was 5.90.

As for `CC(C)C[C@H](CO)Nc1nc(C[C@@H](C)c2c(F)ccc(F)c2F)nc(NS(C)(=O)=O)n1` (single isomer, unassigned) [Example 42, N-(4-(((R)-1-Hydroxy-4-methylpentan-2-yl)amino)-6-((R*)-2-(2,3,6-trifluorophenyl)propyl)-1,3,5-triazin-2-yl)methanesulfonamide], the pIC50 is 7.52. With `CC(C)C[C@H](CO)Nc1nc(CC(C)c2ccc3c(c2)OCC(=O)N3C)nc(NS(C)(=O)=O)n1` (stereo partly drawn) [Example 129, N-(4-(((R)-1-Hydroxy-4-methylpentan-2-yl)amino)-6-(2-(4-methyl-3-oxo-3,4-dihydro-2H-benzo[b][1,4]oxazin-7-yl)propyl)-1,3,5-triazin-2-yl)methanesulfonamide], the pIC50 was 6.77.

The compound `CC(C)C[C@H](CO)Nc1nc(CC(C)c2ccc(C#N)cc2)nc(NS(C)(=O)=O)n1` (single isomer, unassigned) [Example 164, N-(4-((S*)-2-(4-Cyanophenyl)propyl)-6-(((R)-1-hydroxy-4-methylpentan-2-yl)amino)-1,3,5-triazin-2-yl)methanesulfonamide] gave a pIC50 of 5.83. For the compound `CC(C)C[C@H](CO)Nc1nc(CC(C)c2ccc3ncoc3c2)nc(NS(C)(=O)=O)n1` (stereo partly drawn) [Example 61, N-(4-(2-(Benzo[d]oxazol-6-yl)propyl)-6-(((R)-1-hydroxy-4-methylpentan-2-yl)amino)-1,3,5-triazin-2-yl)methanesulfonamide], the pIC50 is 7.12.

Regarding `CC(C)C[C@H](CO)Nc1nc(CC(C)c2ccc(OC(F)F)nc2)nc(NS(C)(=O)=O)n1` (stereo partly drawn) [Example 127, N-(4-(2-(6-(Difluoromethoxy)pyridin-3-yl)propyl)-6-(((R)-1-hydroxy-4-methylpentan-2-yl)amino)-1,3,5-triazin-2-yl)methanesulfonamide], the pIC50 is 6.45. Regarding `CC(C)C[C@H](CO)Nc1nc(CC(C)c2ccc(C3COC3)cc2)nc(NS(C)(=O)=O)n1` (stereo partly drawn) [Example 57, N-(4-(((R)-1-Hydroxy-4-methylpentan-2-yl)amino)-6-(2-(4-(oxetan-3-yl)phenyl)propyl)-1,3,5-triazin-2-yl)methanesulfonamide], the pIC50 was 6.95.

`CC(C)C[C@H](CO)Nc1nc(C[C@H](C)c2cc(F)ccc2F)nc(NS(C)(=O)=O)n1` (single isomer, unassigned) [Example 23, N-(4-((S*)-2-(2,5-Difluorophenyl)propyl)-6-(((R)-1-hydroxy-4-methylpentan-2-yl)amino)-1,3,5-triazin-2-yl)methanesulfonamide]: the pIC50 is 6.26.
